In article PMC9932578 (Clinical Cancer Research, 2022):

What was measured:
[1] = 60 mg QD NHL cohort, n = 1/18
[2] = tested on: gene expression (Hallmark gene sets); experiment: RNA-seq differential expression and GSEA in bone marrow aspirates; type: in vivo, human

SMILES: CCNC(=O)C[C@@H]1N=C(c2ccc(Cl)cc2)c2cc(OC)ccc2-n2c(C)nnc21 [molibresib]
- DLT: thrombocytopenia [1]: 6%
- share of differentially expressed genes downregulated (289/398) ([2]; across all 13 patients): 72.6%
- differentially expressed genes shared between NRs and responders ([2]; in vivo): 61 genes
- genes with significant differential expression ([2]; non-responders (NR)): 884 genes
- genes with significant differential expression ([2]; responders (CR + PR)): 107 genes
